Measured values as given in paper PMC6155728, “Design, Synthesis and Evaluation of Indene Derivatives as Retinoic Acid Receptor α Agonists” (Molecules : A Journal of Synthetic Chemistry and Natural …, 2016).
Values joined by “and” are separate entries in the source; they are usually repeats but may differ in a detail not shown here. Equal entries are not always repeated.

test system: not given; test: not given; conditions: not given

| Structure (SMILES) | melting point |
| --- | --- |
| CCCCOC1CCc2ccc(NC(=O)c3ccc(C(=O)O)cc3)cc21 (stereo not drawn) [Compound 36e, 4-((3-Butoxy-2,3-dihydro-1H-inden-5-yl)carbamoyl)benzoic acid] | > 250 °C |
| CC(C)OC1CCc2ccc(NC(=O)c3ccc(C(=O)O)cc3)cc21 (stereo not drawn) [Compound 36d, 4-((3-Isopropoxy-2,3-dihydro-1H-inden-5-yl)carbamoyl)benzoic acid] | > 250 °C |
| CC1=Cc2cc(NC(=O)c3ccc(C(=O)O)cc3)ccc2C1 [Compound 36i, 4-((2-Methyl-1H-inden-5-yl)carbamoyl)benzoic acid] | > 250 °C |
| CCOC1c2cc(NC(=O)c3ccc(C(=O)O)cc3)ccc2CC1C (stereo not drawn) [Compound 36n, 4-((3-Ethoxy-2-methyl-2,3-dihydro-1H-inden-5-yl)carbamoyl)benzoic acid] | > 250 °C |
| CC(C)C1Cc2ccc(NC(=O)c3ccc(C(=O)O)cc3)cc2C1=O (stereo not drawn) [Compound 36l, 4-((2-Isopropyl-3-oxo-2,3-dihydro-1H-inden-5-yl)carbamoyl)benzoic acid] | > 250 °C |
| COC1Cc2ccc(NC(=O)c3ccc(C(=O)O)cc3)cc2C1 (stereo not drawn) [Compound 36f, 4-((2-Methoxy-2,3-dihydro-1H-inden-5-yl)carbamoyl)benzoic acid] | > 250 °C |
| COC1c2cc(NC(=O)c3ccc(C(=O)O)cc3)ccc2CC1C(C)C (stereo not drawn) [Compound 36o, 4-((2-Isopropyl-3-methoxy-2,3-dihydro-1H-inden-5-yl)carbamoyl)benzoic acid] | > 250 °C |
| CCOC1c2cc(NC(=O)c3ccc(C(=O)O)cc3)ccc2CC1C(C)C (stereo not drawn) [Compound 36p, 4-((3-Ethoxy-2-isopropyl-2,3-dihydro-1H-inden-5-yl)carbamoyl)benzoic acid] | > 250 °C |

test system: NB4 cells; test: Cell differentiation assay (CD11b, FACS), NB4; type: cell-based, human; conditions: 5 μM
Description: (§1) The effects of 36a–g on the differentiation of HL60 and NB4 cells were then assessed.
(§2) Cells (1 × 10^6/mL) were treated with compounds at different concentrations based on IC50 in Table 2 […]. After the treatment, cells were washed twice with PBS and then fixed with 75% alcohol overnight at −20 °C. The fixed cells were washed with PBS and blocked with 95 μL 3% BSA in PBS for 45 min at room temperature. The cells were incubated with 5 μL CD11b-PE at 4 °C for 45 min with protection from light. The antigens were then determined by a FACSCalibur flow cytometer (BD Biosciences Pharmingen, San Diego, CA, USA). The percentages of positive cells were quantitated using CellQuest Pro software. Cells stained with mouse IgG-PE served as negative controls. Both CD11b-PE and mouse IgG-PE antibodies were purchased from BD Biosciences. At least 10,000 cells were analyzed for each data point.

| Structure (SMILES) | CD11b (%) NB4 |
| --- | --- |
| CCCCOC1CCc2ccc(NC(=O)c3ccc(C(=O)O)cc3)cc21 (stereo not drawn) [Compound 36e, 4-((3-Butoxy-2,3-dihydro-1H-inden-5-yl)carbamoyl)benzoic acid] | 15.42 (5 μM) % |
| CC(C)OC1CCc2ccc(NC(=O)c3ccc(C(=O)O)cc3)cc21 (stereo not drawn) [Compound 36d, 4-((3-Isopropoxy-2,3-dihydro-1H-inden-5-yl)carbamoyl)benzoic acid] | 68.88% and 68.88 (5 μM) % |

test system: NB4 cells; test: Inhibition of cell proliferation assay (SRB), NB4; type: cell-based, human; conditions: Homo sapiens, NB-4, 72 h, NB4 cells, 72 hours, SRB; read-out: IC50 cell proliferation NB4
Description: (§3) Human promyelocytic leukemia cell lines HL60 and NB4 were employed to determine the effects of the derivatives on cell proliferation. […] Alkoxy-substitution at the 2-position (i.e., compounds 36f, 36g) harmed the cell proliferation inhibitory activity of the compounds in both cell lines while the isopropyl group at the same position (compound 36h) is favourable. The extension of the π system by an alkenyl bond or a ketone group, as in 36j–l, didn’t affect the compounds’ inhibitory activity in HL60 cells but nulified their activity in NB4 cells. The indene ring tolerates the dual-introduction of a small alkoxyl and an alkyl group at 1- and 2-position, respectively, to retain the antiproliferative activity in HL60 cells.
(§4) Cells were seeded in 96-well plates (Corning Inc.) with a density of 2500 cells (NB4 or HL60) per well for overnight. Then, cells were exposed to each of the test compounds 36a–36p in gradient concentration of 10^−9, 10^−8, 10^−7, 10^−6, 10^−5 mol/L. Control cultures were treated with the same volume of DMSO. After 72 hours of incubation, the cell density in each well were fixed by trichloroacetic acid and then measured using the SRB (sulforhodamine B) method. After rinsing, the SRB was solubilized in TrisHCl, and the optical density of each culture was determined with a Bio-Tek Elx 800 absorbance microplate reader (BioTek, Shoreline, WA, USA). The OD of the treated cultures was divided by that of the control cultures treated with solvent alone.

| Structure (SMILES) | IC50 |
| --- | --- |
| CC(C)OC1CCc2ccc(NC(=O)c3ccc(C(=O)O)cc3)cc21 (stereo not drawn) [Compound 36d, 4-((3-Isopropoxy-2,3-dihydro-1H-inden-5-yl)carbamoyl)benzoic acid] | 1860 to 4090 nM |
| CC1=Cc2cc(NC(=O)c3ccc(C(=O)O)cc3)ccc2C1 [Compound 36i, 4-((2-Methyl-1H-inden-5-yl)carbamoyl)benzoic acid] | > 50000 nM |
| CCOC1c2cc(NC(=O)c3ccc(C(=O)O)cc3)ccc2CC1C (stereo not drawn) [Compound 36n, 4-((3-Ethoxy-2-methyl-2,3-dihydro-1H-inden-5-yl)carbamoyl)benzoic acid] | 8510 nM |
| CC(C)C1Cc2ccc(NC(=O)c3ccc(C(=O)O)cc3)cc2C1=O (stereo not drawn) [Compound 36l, 4-((2-Isopropyl-3-oxo-2,3-dihydro-1H-inden-5-yl)carbamoyl)benzoic acid] | 36900 nM |
| COC1Cc2ccc(NC(=O)c3ccc(C(=O)O)cc3)cc2C1 (stereo not drawn) [Compound 36f, 4-((2-Methoxy-2,3-dihydro-1H-inden-5-yl)carbamoyl)benzoic acid] | > 50000 nM |
| COC1c2cc(NC(=O)c3ccc(C(=O)O)cc3)ccc2CC1C(C)C (stereo not drawn) [Compound 36o, 4-((2-Isopropyl-3-methoxy-2,3-dihydro-1H-inden-5-yl)carbamoyl)benzoic acid] | > 50000 nM |
| CCOC1c2cc(NC(=O)c3ccc(C(=O)O)cc3)ccc2CC1C(C)C (stereo not drawn) [Compound 36p, 4-((3-Ethoxy-2-isopropyl-2,3-dihydro-1H-inden-5-yl)carbamoyl)benzoic acid] | 7560 nM |

same assay, conditions: NB4 cells, 72 hours, SRB; read-out: IC50 cell proliferation NB4

| Structure (SMILES) | IC50 |
| --- | --- |
| CC(C)OC1CCc2ccc(NC(=O)c3ccc(C(=O)O)cc3)cc21 (stereo not drawn) [Compound 36d, 4-((3-Isopropoxy-2,3-dihydro-1H-inden-5-yl)carbamoyl)benzoic acid] | 1860 nM |

test system: HL60 cells; test: Cell differentiation assay (CD11b, FACS), HL60; type: cell-based, human; conditions: 50 μM
Description: as §1, §2

| Structure (SMILES) | CD11b (%) HL60 |
| --- | --- |
| CCCCOC1CCc2ccc(NC(=O)c3ccc(C(=O)O)cc3)cc21 (stereo not drawn) [Compound 36e, 4-((3-Butoxy-2,3-dihydro-1H-inden-5-yl)carbamoyl)benzoic acid] | 2.87 (50 μM) % |
| CC(C)OC1CCc2ccc(NC(=O)c3ccc(C(=O)O)cc3)cc21 (stereo not drawn) [Compound 36d, 4-((3-Isopropoxy-2,3-dihydro-1H-inden-5-yl)carbamoyl)benzoic acid] | 3.77 (50 μM) % |

test system: HL60 cells; test: Inhibition of cell proliferation assay (SRB), HL60; type: cell-based; conditions: Homo sapiens, HL-60; HL60 cells, 72 hours, SRB; read-out: IC50 cell proliferation HL60
Description: as §3, §4

| Structure (SMILES) | IC50 |
| --- | --- |
| CCCCOC1CCc2ccc(NC(=O)c3ccc(C(=O)O)cc3)cc21 (stereo not drawn) [Compound 36e, 4-((3-Butoxy-2,3-dihydro-1H-inden-5-yl)carbamoyl)benzoic acid] | > 50000 nM |
| CC(C)OC1CCc2ccc(NC(=O)c3ccc(C(=O)O)cc3)cc21 (stereo not drawn) [Compound 36d, 4-((3-Isopropoxy-2,3-dihydro-1H-inden-5-yl)carbamoyl)benzoic acid] | > 50000 nM |
| CC1=Cc2cc(NC(=O)c3ccc(C(=O)O)cc3)ccc2C1 [Compound 36i, 4-((2-Methyl-1H-inden-5-yl)carbamoyl)benzoic acid] | > 50000 nM |
| CCOC1c2cc(NC(=O)c3ccc(C(=O)O)cc3)ccc2CC1C (stereo not drawn) [Compound 36n, 4-((3-Ethoxy-2-methyl-2,3-dihydro-1H-inden-5-yl)carbamoyl)benzoic acid] | 800 nM |
| CC(C)C1Cc2ccc(NC(=O)c3ccc(C(=O)O)cc3)cc2C1=O (stereo not drawn) [Compound 36l, 4-((2-Isopropyl-3-oxo-2,3-dihydro-1H-inden-5-yl)carbamoyl)benzoic acid] | 2110 nM |
| COC1Cc2ccc(NC(=O)c3ccc(C(=O)O)cc3)cc2C1 (stereo not drawn) [Compound 36f, 4-((2-Methoxy-2,3-dihydro-1H-inden-5-yl)carbamoyl)benzoic acid] | > 50000 nM |
| COC1c2cc(NC(=O)c3ccc(C(=O)O)cc3)ccc2CC1C(C)C (stereo not drawn) [Compound 36o, 4-((2-Isopropyl-3-methoxy-2,3-dihydro-1H-inden-5-yl)carbamoyl)benzoic acid] | 2350 nM |
| CCOC1c2cc(NC(=O)c3ccc(C(=O)O)cc3)ccc2CC1C(C)C (stereo not drawn) [Compound 36p, 4-((3-Ethoxy-2-isopropyl-2,3-dihydro-1H-inden-5-yl)carbamoyl)benzoic acid] | 1130 nM |

target: T1, RARα (RAR alpha LBD-GST) (Homo sapiens, UniProt P10276); test: Receptor binding assay (LanthaScreen TR-FRET RAR alpha Coactivator Assay); conditions: 1 h incubation, AM80 positive control, read-out: RARα binding affinity EC50
T1 construct: A mixture of 5 nM RAR alpha LBD-GST, 5 nM TbAnti-GST antibody, 50 nM Fluorescein-D22 was added to the wells; purchased Invitrogen
T1 sequence (P10276 183-417 limits assumed): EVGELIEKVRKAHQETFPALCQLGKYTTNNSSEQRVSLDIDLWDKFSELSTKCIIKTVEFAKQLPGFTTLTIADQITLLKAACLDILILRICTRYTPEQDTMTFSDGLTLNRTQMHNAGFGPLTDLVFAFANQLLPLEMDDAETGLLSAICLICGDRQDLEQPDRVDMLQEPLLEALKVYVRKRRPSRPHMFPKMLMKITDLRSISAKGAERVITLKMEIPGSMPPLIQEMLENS
Description: The obtained target compounds were tested for their binding affinities to RARα using a time resolved fluorescence resonance energy transfer (TR-FRET) assay with AM80 as the positive control.
All synthesized compounds were tested for their binding affinity by using time resolved fluorescence resonance energy transfer (TR-FRET) assay, which used a LanthaScreen® TR-FRET RAR alpha Coactivator Assay Kit (Invitrogen, Carlsbad, CA, USA). Briefly, all experiments were performed in black 384-well low-volume plates (Corning Inc., Corning, NY, USA) in dark at room temperature. The final assay volume was 20 μL. All dilutions were made in assay buffer (TR-FRET Coregulator Buffer D). The final DMSO concentration was 1%. A mixture of 5 nM RAR alpha LBD-GST, 5 nM TbAnti-GST antibody, 50 nM Fluorescein-D22 was added to the wells. The only variable is the agonist concentration (6.1 × 10^−11~1.0 × 10^−6 M final concentrations of each retinoid). […] Data were analyzed by using GraphPad Prism software (GraphPad Software, Inc., La Jolla, CA, USA) and FRET signal was determined for all treatments by dividing 520 nm/495 nm signals. Graphs plotted as fold change of FRET signal for compounds treatment over DMSO only treatment.

| Structure (SMILES) | EC50 |
| --- | --- |
| CCCCOC1CCc2ccc(NC(=O)c3ccc(C(=O)O)cc3)cc21 (stereo not drawn) [Compound 36e, 4-((3-Butoxy-2,3-dihydro-1H-inden-5-yl)carbamoyl)benzoic acid] | 14.9 nM |
| CC(C)OC1CCc2ccc(NC(=O)c3ccc(C(=O)O)cc3)cc21 (stereo not drawn) [Compound 36d, 4-((3-Isopropoxy-2,3-dihydro-1H-inden-5-yl)carbamoyl)benzoic acid] | 24.2 nM |
| CC1=Cc2cc(NC(=O)c3ccc(C(=O)O)cc3)ccc2C1 [Compound 36i, 4-((2-Methyl-1H-inden-5-yl)carbamoyl)benzoic acid] | 14.1 nM |
| CCOC1c2cc(NC(=O)c3ccc(C(=O)O)cc3)ccc2CC1C (stereo not drawn) [Compound 36n, 4-((3-Ethoxy-2-methyl-2,3-dihydro-1H-inden-5-yl)carbamoyl)benzoic acid] | 146 nM |
| CC(C)C1Cc2ccc(NC(=O)c3ccc(C(=O)O)cc3)cc2C1=O (stereo not drawn) [Compound 36l, 4-((2-Isopropyl-3-oxo-2,3-dihydro-1H-inden-5-yl)carbamoyl)benzoic acid] | 4.68 nM |
| COC1Cc2ccc(NC(=O)c3ccc(C(=O)O)cc3)cc2C1 (stereo not drawn) [Compound 36f, 4-((2-Methoxy-2,3-dihydro-1H-inden-5-yl)carbamoyl)benzoic acid] | > 1000 nM |
| COC1c2cc(NC(=O)c3ccc(C(=O)O)cc3)ccc2CC1C(C)C (stereo not drawn) [Compound 36o, 4-((2-Isopropyl-3-methoxy-2,3-dihydro-1H-inden-5-yl)carbamoyl)benzoic acid] | 3.93 nM |
| CCOC1c2cc(NC(=O)c3ccc(C(=O)O)cc3)ccc2CC1C(C)C (stereo not drawn) [Compound 36p, 4-((3-Ethoxy-2-isopropyl-2,3-dihydro-1H-inden-5-yl)carbamoyl)benzoic acid] | 9.03 nM |
